# Measured values published in US20060178435A1, “Apogossypolone and the uses thereof” (The Regents of the University of Michigan, priority 2004, published 2006).
# Read-outs that look alike come from different tables or passages of the source.
# Key:
# [1] = system: PC-3 prostate cancer cell line; experiment: Inhibition of cell growth, MTT assay, PC-3; type: cell-based, human; settings: for potency relative to (−)-gossypol in inhibition of cell growth: PC-3 cell line, 3-5 independent experiments
# Procedure: (§1) A direct comparison of (−)-gossypol, apogossypol and apogossypolone for their activity in inhibition of cell growth in PC-3 and LnCap prostate cancer cell lines was carried out.
# recombinant human Bcl-2 = recombinant human Bcl-2 (Homo sapiens, UniProt P10415); experiment: Fluorescence polarization binding assay for Bcl-2 (Bid-FAM peptide displacement)
# Sequence of recombinant human Bcl-2 (P10415 92-205 limits assumed): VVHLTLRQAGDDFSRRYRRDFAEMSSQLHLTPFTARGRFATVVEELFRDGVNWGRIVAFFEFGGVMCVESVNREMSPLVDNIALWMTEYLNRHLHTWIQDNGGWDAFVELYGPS
# [2] = system: LnCap prostate cancer cell line; experiment: Inhibition of cell growth, MTT assay, LnCap; type: cell-based; settings: read-out: IC50, inhibition of cell growth
# Procedure: as §1
# [3] = Maximal tolerated dose (MTD) in mice; type: in vivo; settings: for MTD: mouse, in vivo
# Procedure: To confirm this prediction, the maximal tolerated dose (MTD) of apogossypolone and (−)-gossypol was evaluated in mice using two different routes of administrations (oral and intravenous). For oral administration (oral gavage 5 days/week), the MTD of apogossypolone was above 240 mg/kg while the MTD for (−)-gossypol was about 50 mg/kg. For intravenous administration (every other day and 3 days/week), the MTD of apogossypolone was about 80 mg/kg while the MTD for (−)-gossypol was about 10 mg/kg. In both routes of administration, the MTD of apogossypolone was 8-times better than (−)-gossypol.
# [4] = biological target: T1, human Mcl-1 protein (amino acids 171-327) (Homo sapiens, UniProt Q07820); experiment: Fluorescence polarization binding assay for the Mcl-1 protein (Flu-Bid-21 probe)
# T1 construct: The fragment encoding amino acids 171-327 was cloned into the pHis-TEV vector; 8xHis (N); made in house; host or cells: E. coli BL21(DE3)
# T1 sequence (Q07820 171-327): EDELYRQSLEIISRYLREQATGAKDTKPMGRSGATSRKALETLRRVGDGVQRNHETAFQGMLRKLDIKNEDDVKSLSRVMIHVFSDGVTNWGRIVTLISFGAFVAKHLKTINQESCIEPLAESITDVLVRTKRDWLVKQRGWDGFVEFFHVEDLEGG
# [5] = system: MDA-MB-435 breast cancer cell line; experiment: Cell growth inhibition, MDA-MB-435; type: cell-based, human
# Procedure: as §1
# (§2) Additional cell growth inhibition studies were performed using the MDA-MB-231 (subclone 2LMP), T47D, and MDA-MB-435 breast cancer cell lines. Racemic gossypol, apogossypol, apogossypolone, (+)-apogossypol, (−)-apogossypol, and tetra-acetyl apogossypolone (Formula VIII) were tested as described above.
# [6] = system: T47D breast cancer cell line; experiment: Cell growth inhibition, T47D; type: cell-based, human
# Procedure: as §1, §2
# [7] = system: MDA-MB-231 (subclone 2LMP) breast cancer cell line; experiment: Cell growth inhibition, MDA-MB-231 (subclone 2LMP); type: cell-based, human; settings: for fold more potent than gossypol: MDA-MB-231 cell line
# Procedure: as §1, §2
# [8] = Storage stability of the sample; type: physicochemical
# recombinant human Bcl-xL = biological target: T2, recombinant human Bcl-xL (Homo sapiens, UniProt Q07817); experiment: Fluorescence polarization binding assay for Bcl-xL (Bak-Flu peptide displacement)
# T2 construct: fused to a His-tag without the C-terminus hydrophobic tail; His-tag
# T2 sequence (Q07817 1-209 limits assumed): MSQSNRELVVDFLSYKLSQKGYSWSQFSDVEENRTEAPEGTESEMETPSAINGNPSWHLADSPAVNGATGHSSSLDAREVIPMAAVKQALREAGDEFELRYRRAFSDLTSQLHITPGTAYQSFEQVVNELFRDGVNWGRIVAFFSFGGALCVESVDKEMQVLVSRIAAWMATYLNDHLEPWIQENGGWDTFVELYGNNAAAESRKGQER
# Description: Fluorescence polarization (FP)-based binding assays for Bcl-2 and Bcl-xL were developed and optimized using recombinant human Bcl-2 and Bcl-xL proteins, a Bid BH3 peptide labeled with 6-carboxyfluorescein succinimidyl ester (FAM) and Bak BH3 peptide labeled with 6-(fluorescein-5(6)-carboxamido) hexanoic acid (Flu). The FP-based binding assays measure the ability of an inhibitor to displace either Bid-FAM or Bak-Flu peptide from Bcl-2 or Bcl-xL protein, respectively. The dose-dependent binding experiments were carried out with serial dilutions of the tested compounds in DMSO. For the Bcl-2 binding assay, a 5 μl sample of the inhibitor and preincubated recombinant His-fused soluble Bcl-2 protein (120 nM) with Bid-FAM peptide (10 nM) in the assay buffer (100 mM potassium phosphate, pH 7.5; 100 μg/ml bovine gamma globulin; 0.02% sodium azide, purchased from Invitrogen, Life Technologies), were added in Dynex 96-well, black, round-bottom plates (Fisher Scientific), to produce a final volume of 125 μl. […] The polarization values were measured after 3-4 hr incubation, using an ULTRA READER (Tecan U.S. Inc., Research Triangle Park, N.C.). The Ki value was calculated using a modified Cheng-Prusoff equation based upon the Kd value for the Bid-FAM peptide to Bcl-2, the measured IC50 value, and the concentrations of the protein and Bid-FAM. […]
# PC-3 xenografts = experiment: Antitumor activity in PC-3 xenograft model, alone or with X-ray irradiation; type: in vivo, nude mice; settings: for complete tumor regression: Day 57
# Procedure: An in vivo study of apogossypolone was carried out using a PC-3 xenograft model in nude mice to evaluate the antitumor activity of apogossypolone alone or in combination with X-ray irradiation. Nude mice with established PC-3 xenografts (150 mm^3 in size) were treated with (1) apogossypolone 200 mg/kg p.o. q.d. 5×4 weeks; (2) fractionated X-ray irradiation to the tumor only, with the animal body shielded, at a dose of 2 Gy q.d. 5×3 weeks, total 30 Gy; and (3) a combination of apogossypolone and radiation.
# [9] = Homo sapiens, PC-3 cells, 4-6 day MTT assay, read-out: IC50, inhibition of cell growth
# [10] = FP-based binding assay, Ki calculated from IC50 with modified Cheng-Prusoff equation, read-out: Ki
# [11] = intravenous, every other day and 3 days/week
# [12] = MDA-MB-435; read-out: IC50 (μM) MDA-MB-435
# [13] = MDA-MB-231 (subclone 2LMP), read-out: IC50 (μM) MDA-MB-231
# [14] = Homo sapiens, MDA-MB-435, read-out: IC50 (μM) MDA-MB-435
# [15] = Homo sapiens, T47D, read-out: IC50 (μM) T47D
# [16] = Homo sapiens, MDA-MB-231, read-out: IC50 (μM) MDA-MB-231
smiles,measurement,setting,value
Cc1cc2c(C(C)C)c(O)c(O)c(C(=O)O)c2c(O)c1-c1c(C)cc2c(C(C)C)c(O)c(O)c(C(=O)O)c2c1O [gossypolic acid],IC50,[1]; [9],> 10 µM
same,Ki,recombinant human Bcl-2; [10],0.12 µM
"Cc1cc2c(C(C)C)c(O)c(O)c(C=O)c2c(O)c1-c1c(C)cc2c(C(C)C)c(O)c(O)c(C=O)c2c1O [(−)-gossypol, reference compound]",IC50,[2]; LnCap cell line,4.7 µM
same,IC50,"[1]; PC-3 cells, 4-6 day MTT assay, read-out: IC50, inhibition of cell growth",6.5 µM
same,maximal tolerated dose (MTD),[3]; [11],about 10 mg/kg
same,maximal tolerated dose (MTD),[3]; oral gavage 5 days/week,about 50 mg/kg
same,Ki,"[4]; FP competitive binding, unit inferred, read-out: Ki to Mcl-1",0.18 ± 0.01 µM
"Cc1cc2c(C(C)C)c(O)c(O)cc2c(O)c1-c1c(C)cc2c(C(C)C)c(O)c(O)cc2c1O [(−)-Apogossypol, (−)-apogossypol]",IC50,[5]; [12],3.13 µM
same,IC50,[6]; T47D; read-out: IC50 (μM) T47D,4.26 µM
same,IC50,[7]; [13],2.31 µM
CC[C@H](C)[C@H](NC(=O)[C@H](CC(N)=O)NC(=O)[C@H](CCCNC(=N)N)NC(=O)[C@@H](NC(=O)[C@@H](NC(=O)[C@H](CC(=O)O)NC(=O)[C@H](CCC(=O)O)NC(=O)[C@H](CCC(N)=O)NC(=O)c1ccc2c(c1)C1(OC2=O)c2ccc(O)cc2Oc2cc(O)ccc21)[C@@H](C)CC)[C@@H](C)CC)C(=O)N[C@@H](C)C(=O)N[C@@H](CCCNC(=N)N)C(=O)N[C@@H](Cc1c[nH]cn1)C(=O)N[C@@H](CC(C)C)C(=O)N[C@@H](C)C(=O)N[C@@H](CCC(N)=O)C(=O)N[C@H](C(=O)NCC(=O)N[C@@H](CC(=O)O)C(=O)N[C@@H](CO)C(=O)N[C@@H](CCSC)C(=O)N[C@@H](CC(=O)O)C(=O)N[C@@H](CCCNC(=N)N)C(=O)O)C(C)C [Flu-Bid-21],Kd,"[4]; probe concentration 0.5 nM, read-out: apparent Kd for Mcl-1",0.0007 µM
same,Kd,"[4]; probe concentration 1 nM, saturation experiment, read-out: Kd for Mcl-1",0.00083 µM
same,Kd,"[4]; probe concentration 2.5 nM, read-out: apparent Kd for Mcl-1",0.00105 µM
same,Kd,"[4]; probe concentration 5 nM, read-out: apparent Kd for Mcl-1",0.00132 µM
"Cc1cc2c(C(C)C)c(O)c(O)cc2c(O)c1-c1c(C)cc2c(C(C)C)c(O)c(O)cc2c1O [(+)-Apogossypol, (+)-apogossypol]",IC50,[5]; [12],7.28 µM
same,IC50,[6]; T47D; read-out: IC50 (μM) T47D,14 µM
same,IC50,[7]; [13],8.81 µM
CC[C@H](C)[C@H](NC(=O)[C@H](CC(N)=O)NC(=O)[C@H](CCCN=C(N)N)NC(=O)[C@@H](NC(=O)[C@@H](NC(=O)[C@H](CC(=O)O)NC(=O)[C@H](CCC(=O)O)NC(=O)[C@@H](N)CCC(N)=O)[C@@H](C)CC)[C@@H](C)CC)C(=O)N[C@@H](C)C(=O)N[C@@H](CCCN=C(N)N)C(=O)N[C@@H](Cc1c[nH]cn1)C(=O)N[C@@H](CC(C)C)C(=O)N[C@@H](C)C(=O)N[C@@H](CCC(N)=O)C(=O)N[C@H](C(=O)NCC(=O)N[C@@H](CC(=O)O)C(=O)N[C@@H](CO)C(=O)N[C@@H](CCSC)C(=O)N[C@@H](CC(=O)O)C(=O)N[C@@H](CCCN=C(N)N)C(=O)O)C(C)C [unlabeled Bid 21mer peptide],Ki,[4],0.0057 ± 0.0011 µM
"CC(=O)Oc1cc2c(c(C(C)C)c1OC(C)=O)C(=O)C(C)=C(C1=C(C)C(=O)c3c(cc(OC(C)=O)c(OC(C)=O)c3C(C)C)C1=O)C2=O [Tetra acetyl apogossypolone, tetra-acetyl apogossypolone]",IC50,"[5]; Homo sapiens, MDA-MB-435; read-out: IC50 (μM) MDA-MB-435",6.29 µM
same,IC50,"[6]; Homo sapiens, T47D; read-out: IC50 (μM) T47D",6.33 µM
same,IC50,"[7]; Homo sapiens, MDA-MB-231 (subclone 2LMP), read-out: IC50 (μM) MDA-MB-231",1.32 µM
Cc1cc2c(C(C)C)c(O)c(O)cc2c(O)c1-c1c(C)cc2c(C(C)C)c(O)c(O)cc2c1O [apogossypol],IC50,[5]; [14],3.39 µM
same,fold more potent than gossypol,[5]; MDA-MB-435 cell line,about 3 fold
same,IC50,[6]; [15],6.51 µM
same,fold more potent than gossypol,[6]; T47D cell line,about 2.5 fold
same,potency relative to (−)-gossypol in inhibition of cell growth,[1],as potent as (−)-gossypol
same,IC50,[7]; [16],2.37 µM
same,fold more potent than gossypol,[7],about 5 fold
same,time in which the sample decomposed,[8]; stored at −20° C. and under nitrogen,≤ 1 week
same,Ki,recombinant human Bcl-2,0.2 µM
CC1=C(C2=C(C)C(=O)c3c(c(C(=O)O)c(O)c(O)c3C(C)C)C2=O)C(=O)c2c(C(=O)O)c(O)c(O)c(C(C)C)c2C1=O [gossypolonic acid],IC50,[1]; [9],> 10 µM
same,Ki,recombinant human Bcl-2; [10],0.28 µM
"CC1=C(C2=C(C)C(=O)c3c(cc(O)c(O)c3C(C)C)C2=O)C(=O)c2cc(O)c(O)c(C(C)C)c2C1=O (racemic) [apogossypolone, 6,7,6′,7′-Tetrahydroxy-5,5′-diisopropyl-3,3′-dimethyl-[2,2′]binaphthalenyl-1,4,1′,4′-tetraone]",IC50,[5]; [14],4.82 µM
same,fold more potent than gossypol,[5]; MDA-MB-435 cell line,about 2 fold
same,IC50,[6]; [15],9.26 µM
same,fold more potent than gossypol,[6]; T47D cell line,about 2 fold
same,IC50,"[2]; Homo sapiens, LNCaP",1.3 µM
same,IC50,"[1]; Homo sapiens, PC-3, read-out: IC50, inhibition of cell growth",2.2 µM
same,potency relative to (−)-gossypol in inhibition of cell growth,[1],3-4 times
same,IC50,[7]; [16],1.27 µM
same,fold more potent than gossypol,[7],about 9 fold
same,MTD relative to (−)-gossypol,[3]; both routes of administration,8 times
same,MTD,[3]; [11],~80 mg/kg
same,MTD,[3]; oral gavage 5 days/week,> 240 mg/kg
same,Ki,recombinant human Bcl-xL,1.27 µM
same,complete tumor regression,PC-3 xenografts; apogossypolone 200 mg/kg p.o. plus X-ray radiation 2 Gy q.d. 5×3 weeks,seven out of ten
same,complete tumor regression,"PC-3 xenografts; apogossypolone alone, 200 mg/kg p.o.",zero out of ten
same,effect on the tumors,"PC-3 xenografts; apogossypolone alone, 200 mg/kg p.o. q.d. 5×4 weeks",limited effect
same,enhancement of radiation-mediated tumor inhibition,"PC-3 xenografts; combination with X-ray radiation, P<0.0001, two-way ANOVA, n=10",significantly enhanced
same,decomposition on storage,[8]; stored at room temperature for several weeks without the protection of nitrogen,no decomposition was detected
same,Ki,recombinant human Bcl-2,0.076 µM
same,Ki,[4],0.051 ± 0.02 µM
same,fold better binding affinity compared with (−)-gossypol,[4]; Mcl-1,3.5 fold
"Cc1cc2c(C(C)C)c(O)c(O)c(C=O)c2c(O)c1-c1c(C)cc2c(C(C)C)c(O)c(O)c(C=O)c2c1O (racemic) [(±)-Gossypol, gossypol]",IC50,[5]; [14],11.4 µM
same,IC50,[6]; [15],16.3 µM
same,IC50,[7]; [16],11.1 µM
